Experiment [1] deals with A. baumannii 10591. The experiment in a line: MIC/MBC antimicrobial assay. The class given is cell-based, Acinetobacter baumannii. As to conditions: for MBC: A. baumannii 10591 wild strain, triplicate, two independent experiments. The method, then: (§1) Bacterial cells Acinetobacter baumannii 10591 and 14B0091 were obtained from BCRC Taiwan. All the MDR strains were obtained from the hospital as gifts. The antimicrobial assay was performed as per the standard protocol; 50 µL of 10^6 CFU/mL of mid-log phase bacterial suspension was treated with 50 µL of candidate peptide and meropenem (Sigma: PHR1772) incubated at 37 °C for 960~1200 min. The clear wells corresponding to the lowest concentrations are reported as the minimum inhibitory concentration (MIC). Suspensions from the clear wells were plated on Mueller–Hinton agar (MHA) plates and incubated at 37 °C overnight. The lowest concentration corresponding to no growth was recorded as the minimum bactericidal concentration (MBC). To detect the effect of human serum (H3667, Sigma Aldrich, St. Louis, MO, USA) on the peptides, the media was replaced with 50% human serum-containing media. Similarly, to detect the effect of lung surfactant (SURVANTA®, beractant, AbbVie Inc., Lake Bluff, IL, USA (25 mg/mL)) on the antimicrobial activity of the peptide, the normal media was replaced with 5% lung surfactant-containing media. To analyse the bacterial killing kinetics, after the addition of the peptide to the bacterial suspension, 10 µL of broth was diluted 1000 times, plated at 30 min intervals, and allowed to incubate for 90 min. The bacterial load is expressed as CFU/mL as a function of time.

The subject of experiment [2] is MDR A. baumannii 14B0091. The experiment in a line: MIC/MBC antimicrobial assay. The class given is cell-based, Acinetobacter baumannii. Particulars: MDR strain 14B0091, triplicate, two independent experiments. The method, then:
as §1

Experiment [3] has as its system MDR A. baumannii 1019. Kind of experiment: MIC/MBC antimicrobial assay. Format: cell-based. Particulars: Acinetobacter baumannii; MDR strain 1019; normal media; triplicate, two independent experiments. As for the experimental part: as §1
Experiment [4] has as its system MDR A. baumannii 1607. Kind of experiment: MIC/MBC antimicrobial assay. Format: cell-based. Particulars: Acinetobacter baumannii; MDR strain 1607; normal media; triplicate, two independent experiments. As for the experimental part:
as §1

The test system of experiment [5] is MDR A. baumannii 1702. Kind of experiment: MIC/MBC antimicrobial assay. Format: cell-based. As to conditions: Acinetobacter baumannii; MDR strain 1702; normal media; triplicate, two independent experiments. The method, then: as §1
The test system of experiment [6] is MDR A. baumannii 2998. Kind of experiment: MIC/MBC antimicrobial assay. Format: cell-based. Particulars: Acinetobacter baumannii; MDR strain 2998; normal media; triplicate, two independent experiments. The method, then: as §1
Experiment [7] concerns MDR A. baumannii 3618. Kind of experiment: MIC/MBC antimicrobial assay. The class given is cell-based. As to conditions: Acinetobacter baumannii; MDR strain 3618; normal media; triplicate, two independent experiments. As for the experimental part: as §1
In experiment [8] the test system is MDR A. baumannii 921. Kind of experiment: MIC/MBC antimicrobial assay. The class given is cell-based. Particulars: Acinetobacter baumannii; MDR strain 921; normal media; triplicate, two independent experiments. As for the experimental part: as §1
In experiment [9] the test system is A. baumannii (10591). The experiment in a line: Induced resistance (serial passage) assay. Particulars: 15 cycles, from subinhibitory wells. The class given is cell-based, Acinetobacter baumannii. The method, then: A total of 50 µL of 10^6 CFU/mL bacterial cells were treated with different concentrations of peptide. Bacterial cells from subinhibitory wells were subcultured by passaging for 15 cycles, followed by testing their MIC values. The fold change in MIC was reported in comparison with starting MIC values.

Experiment [10] relates to A. baumannii 10591. The experiment in a line: Biofilm rupture assay. Format: cell-based, Acinetobacter baumannii. As to conditions: at the lowest concentration (25 µg/mL). As for the experimental part:
For the biofilm inhibition assay, 106 bacterial cells were treated with peptide at various concentrations in MHB media containing 0.2% glucose for 24 h at 37 °C in 96-well plates. The wells were then washed with PBS, treated with 100% methanol for 15 min, and the washes were discarded. Crystal violet solution (0.02%) was added to the dry plates and incubated for 30 min. The wells were then washed and treated with 33% acetic acid, followed by detection at 595 nm. For the biofilm rupture assay, 106 bacterial cells were grown overnight. The residual liquid was discarded, followed by washing with PBS. Next, 100 µL of peptide at different concentrations was added as estimated according to the biofilm inhibition assay.

Setting [11] is: Acinetobacter baumannii, media containing 50% human serum, read-out: MBC.

Each structure is given as a SMILES string. ≈ marks a conversion by molar mass, not a printed value. Like-named read-outs stand apart in the source and are kept apart here. Some results are limits rather than exact numbers.

`C[C@@H](O)[C@H]1C(=O)N2C(C(=O)O)=C(S[C@@H]3CN[C@H](C(=O)N(C)C)C3)[C@H](C)[C@H]12` [Meropenem, meropenem]: the MBC (usually the lowest tested concentration that kills the bacteria rather than only halting them) is 1.56 mg/L (≈ 4.07 µM) in experiment [1] (media containing 5% lung surfactant); 1.56 mg/L (≈ 4.07 µM) in [1] (setting [11]); above 100 mg/L in experiment [2] (setting [11]); above 100 mg/L in [2] (normal media); 25 mg/L (≈ 65.2 µM) in experiment [3]; 50 mg/L (≈ 130 µM) in experiment [4]. Also, the minimum bactericidal concentration (MBC) in [5] was 12.5 mg/L (≈ 32.6 µM); in experiment [6] it was above 100 mg/L; in [7] it was 50 to 100 mg/L (≈ 130 to 261 µM); in [8], above 100 mg/L. The minimum inhibitory concentration (MIC) – broadly, the least concentration at which growth counts as inhibited – in experiment [1] (Acinetobacter baumannii, 10591) was 1.56 mg/L (≈ 4.07 µM); in [2] (Acinetobacter baumannii, media containing 50% human serum, read-out: MIC), above 100 mg/L; in experiment [2] (normal media), above 100 mg/L; in experiment [3] it was 25 mg/L (≈ 65.2 µM); in experiment [4], 50 mg/L (≈ 130 µM); in experiment [6] it was above 100 mg/L. Also, the MIC in [7] is 50 to 100 mg/L (≈ 130 to 261 µM); in experiment [8] it was 100 mg/L (≈ 261 µM). Moreover, the “increase in MIC versus the initial MIC value (fold)” value in experiment [9] is “up to 16 fold”. Also, the biofilm rupture result in experiment [10] is “nonsignificant biofilm rupture”.

The record behind these values is PMC8875074, “Development of Bactericidal Peptides against Multidrug-Resistant Acinetobacter baumannii with Enhanced Stability and Low Toxicity” (International Journal of Molecular Sciences, 2022).
